Among the data in ChEMBL document CHEMBL1123003, “Synthesis and interaction of 5-(substituted-phenyl)-3-methyl-6,7-dihydropyrazolo[4,3-e] [1,4]diazepin-8(7H)-ones with benzodiazepine receptors in rat cerebral cortex” (J Med Chem, 1985) are IC50 values, retold here.

This assay concerns the target GABA-A receptor; anion channel. The assay can be described thus: Displacement of [3H]flunitrazepam from GABA-A benzodiazepine receptor in synaptic membranes of rat cerebral cortex. It counts as cell membranes.
By IC50 is commonly meant the point on the concentration scale where inhibition reaches its midpoint. Consider `Cc1n[nH]c2c1N=C(c1ccccc1)CNC2=O`, for which the IC50 turned out to be 4.4 µM.

`COc1ccc(C2=Nc3c(C)n[nH]c3C(=O)NC2)cc1` yielded an IC50 of 46.5 µM.

Take `Cc1n[nH]c2c1N=C(c1ccc(Cl)cc1)CNC2=O`: the IC50 came to 10 µM.

Molecule `Cc1n[nH]c2c1N=C(c1ccc(-c3ccccc3)cc1)CNC2=O` displayed an IC50 above 100 µM.

In the case of `Cc1n[nH]c2c1N=C(c1ccc([N+](=O)[O-])cc1)CNC2=O`, the IC50 stood at 30.5 µM.

For the molecule `Cc1n[nH]c2c1N=C(c1ccc(Br)cc1)CNC2=O`, the IC50 turned out to be 22.3 µM.

The molecule `CNC1=Nc2ccc(Cl)cc2C(c2ccccc2)=[N+]([O-])C1` [CHLORDIAZEPOXIDE] registered a half-maximal inhibitory concentration (IC50) of 0.91 µM. This IC50 is about 25-fold lower than that of the molecule before.

Molecule `CCn1nc(C)c2c1C(c1ccccc1)=NCC(=O)N2` [RIPAZEPAM] registered an IC50 of 0.67 µM.
